Test results: US20250269072A1, “PROCESSES FOR PREPARING RADIOLABELLED CONJUGATES” (CENTENARY INSTITUTE OF CANCER MEDICINE AND CELL BIOLOGY, priority 2021, published 2025)
Where “and” joins values, the source holds several entries; their conditions need not be identical. Identical values can stand only once.

Assay: Human studies: radiation dosimetry of subjects 1-4 (Olinda/EXM)
Assay type: in vivo
Conditions: subjects 1-4 = the 7th table-the 10th table
Procedure: For subjects 1-4, radiation dosimetry was calculated using Olinda/EXM based on the organ biodistribution discussed above.
Tables 7-10 show the estimate for radiation dosimetry for subjects 1˜4 of 200 MBq of ^68Ga NODAGA GSAO for individual organs and for the whole body in mSv/MBq (EDE cont.=effective dose equivalent contribution, ED Cont.=effective dose contribution). The estimated whole-body dose from the one (1) low dose CT and two (2) ultra-low dose CTs was 9.2 mSv.

Which results are given for O=C(O)CNC(=O)[C@H](CSCC(=O)Nc1ccc([As](O)O)cc1)NC(=O)CC[C@H](NC(=O)CCC1C(=O)[O][68Ga]2[O]C(=O)CN3CCN(CCN1CC3)CC(=O)[O]2)C(=O)O (stereo partly shown) [^68Ga-NODAGA-GSAO]?
Alpha dose (Adrenals): 0.00E+00 mSv/MBq; ED Cont. (Adrenals): 7.09E−05 mSv/MBq and 7.38E−05 mSv/MBq and 4.84E−05 mSv/MBq and 8.93E−05 mSv/MBq; Photon dose (Adrenals): 4.52E−03 mSv/MBq and 5.24E−03 mSv/MBq and 3.71E−03 mSv/MBq and 4.86E−03 mSv/MBq; Total dose (Adrenals): 1.42E−02 mSv/MBq and 1.48E−02 mSv/MBq and 9.68E−03 mSv/MBq and 1.79E−02 mSv/MBq; Alpha dose (Brain): 0.00E+00 mSv/MBq; Beta dose (Brain): 6.82E−04 mSv/MBq and 6.40E−04 mSv/MBq and 6.13E−04 mSv/MBq and 7.79E−04 mSv/MBq; ED Cont. (Brain): 9.10E−06 mSv/MBq and 1.05E−05 mSv/MBq and 7.39E−06 mSv/MBq and 1.00E−05 mSv/MBq; EDE Cont. (Brain): 0.00E+00 mSv/MBq; Photon dose (Brain): 1.14E−03 mSv/MBq and 1.46E−03 mSv/MBq and 8.65E−04 mSv/MBq and 1.23E−03 mSv/MBq; Total dose (Brain): 1.82E−03 mSv/MBq and 2.10E−03 mSv/MBq and 1.48E−03 mSv/MBq and 2.01E−03 mSv/MBq; Alpha dose (Breasts): 0.00E+00 mSv/MBq; Photon dose (Breasts): 2.11E−03 mSv/MBq and 2.76E−03 mSv/MBq and 1.59E−03 mSv/MBq and 2.25E−03 mSv/MBq; Alpha dose (Gallbladder Wall): 0.00E+00 mSv/MBq; ED Cont. (Gallbladder Wall): 0.00E+00 mSv/MBq; EDE Cont. (Gallbladder Wall): 0.00E+00 mSv/MBq; Photon dose (Gallbladder Wall): 4.59E−03 mSv/MBq and 5.27E−03 mSv/MBq and 4.07E−03 mSv/MBq and 4.46E−03 mSv/MBq; Total dose (Gallbladder Wall): 8.07E−03 mSv/MBq and 9.96E−03 mSv/MBq and 6.09E−03 mSv/MBq and 8.56E−03 mSv/MBq; Alpha dose (Heart Wall): 0.00E+00 mSv/MBq; Beta dose (Heart Wall): 6.65E−03 mSv/MBq and 8.27E−03 mSv/MBq and 4.65E−03 mSv/MBq and 7.57E−03 mSv/MBq; ED Cont. (Heart Wall): 0.00E+00 mSv/MBq; EDE Cont. (Heart Wall): 0.00E+00 mSv/MBq; Photon dose (Heart Wall): 3.57E−03 mSv/MBq and 4.29E−03 mSv/MBq and 2.82E−03 mSv/MBq and 3.84E−03 mSv/MBq; Total dose (Heart Wall): 1.02E−02 mSv/MBq and 1.26E−02 mSv/MBq and 7.48E−03 mSv/MBq and 1.14E−02 mSv/MBq; Alpha dose (Kidneys): 0.00E+00 mSv/MBq; Beta dose (Kidneys): 4.32E−02 mSv/MBq and 4.21E−02 mSv/MBq and 4.45E−02 mSv/MBq and 4.30E−02 mSv/MBq; ED Cont. (Kidneys): 2.52E−04 mSv/MBq and 2.48E−04 mSv/MBq and 2.57E−04 mSv/MBq; EDE Cont. (Kidneys): 3.03E−03 mSv/MBq and 2.98E−03 mSv/MBq and 3.08E−03 mSv/MBq and 3.02E−03 mSv/MBq; Photon dose (Kidneys): 7.22E−03 mSv/MBq and 7.59E−03 mSv/MBq and 6.83E−03 mSv/MBq and 7.33E−03 mSv/MBq; Total dose (Kidneys): 5.04E−02 mSv/MBq and 4.97E−02 mSv/MBq and 5.13E−02 mSv/MBq and 5.03E−02 mSv/MBq; Alpha dose (LLI Wall): 0.00E+00 mSv/MBq; ED Cont. (LLI Wall): 2.43E−03 mSv/MBq and 2.50E−03 mSv/MBq and 2.44E−03 mSv/MBq and 1.48E−03 mSv/MBq; Photon dose (LLI Wall): 7.31E−03 mSv/MBq and 7.16E−03 mSv/MBq and 5.96E−03 mSv/MBq and 8.79E−03 mSv/MBq; Total dose (LLI Wall): 2.02E−02 mSv/MBq and 2.08E−02 mSv/MBq and 2.03E−02 mSv/MBq and 1.23E−02 mSv/MBq; Alpha dose (Liver): 0.00E+00 mSv/MBq; Beta dose (Liver): 1.27E−02 mSv/MBq and 1.45E−02 mSv/MBq and 1.20E−02 mSv/MBq and 1.16E−02 mSv/MBq; ED Cont. (Liver): 8.78E−04 mSv/MBq and 1.00E−03 mSv/MBq and 8.20E−04 mSv/MBq and 8.13E−04 mSv/MBq; Photon dose (Liver): 4.84E−03 mSv/MBq and 5.51E−03 mSv/MBq and 4.36E−03 mSv/MBq and 4.71E−03 mSv/MBq; Total dose (Liver): 1.76E−02 mSv/MBq and 2.00E−02 mSv/MBq and 1.64E−02 mSv/MBq and 1.63E−02 mSv/MBq; Alpha dose (Lungs): 0.00E+00 mSv/MBq; Beta dose (Lungs): 5.19E−03 mSv/MBq and 5.73E−03 mSv/MBq and 5.16E−03 mSv/MBq and 4.82E−03 mSv/MBq; ED Cont. (Lungs): 9.74E−04 mSv/MBq and 1.11E−03 mSv/MBq and 9.04E−04 mSv/MBq and 9.57E−04 mSv/MBq; EDE Cont. (Lungs): 9.74E−04 mSv/MBq and 1.11E−03 mSv/MBq and 9.04E−04 mSv/MBq and 9.57E−04 mSv/MBq; Photon dose (Lungs): 2.93E−03 mSv/MBq and 3.54E−03 mSv/MBq and 2.37E−03 mSv/MBq and 3.15E−03 mSv/MBq; Total dose (Lungs): 8.12E−03 mSv/MBq and 9.27E−03 mSv/MBq and 7.53E−03 mSv/MBq and 7.97E−03 mSv/MBq; Alpha dose (Muscle): 0.00E+00 mSv/MBq; Beta dose (Muscle): 6.19E−03 mSv/MBq and 6.08E−03 mSv/MBq and 5.15E−03 mSv/MBq and 7.68E−03 mSv/MBq; ED Cont. (Muscle): 4.85E−05 mSv/MBq and 4.95E−05 mSv/MBq and 3.99E−05 mSv/MBq and 5.88E−05 mSv/MBq; EDE Cont. (Muscle): 0.00E+00 mSv/MBq; Photon dose (Muscle): 3.51E−03 mSv/MBq and 3.83E−03 mSv/MBq and 2.83E−03 mSv/MBq and 4.07E−03 mSv/MBq; Total dose (Muscle): 9.71E−03 mSv/MBq and 9.91E−03 mSv/MBq and 7.98E−03 mSv/MBq and 1.18E−02 mSv/MBq; Alpha dose (Osteogenic Cells): 0.00E+00 mSv/MBq; Photon dose (Osteogenic Cells): 3.47E−03 mSv/MBq and 4.14E−03 mSv/MBq and 2.74E−03 mSv/MBq and 3.80E−03 mSv/MBq; Alpha dose (Ovaries): 0.00E+00 mSv/MBq; Photon dose (Ovaries): 7.00E−03 mSv/MBq and 6.95E−03 mSv/MBq and 5.52E−03 mSv/MBq and 8.79E−03 mSv/MBq; Total dose (Ovaries): 1.01E−02 mSv/MBq and 1.16E−02 mSv/MBq and 7.54E−03 mSv/MBq and 1.23E−02 mSv/MBq; Alpha dose (Pancreas): 0.00E+00 mSv/MBq; Beta dose (Pancreas): 1.20E−02 mSv/MBq and 1.62E−02 mSv/MBq and 1.13E−02 mSv/MBq and 1.18E−02 mSv/MBq; ED Cont. (Pancreas): 8.46E−05 mSv/MBq and 1.10E−04 mSv/MBq and 7.72E−05 mSv/MBq and 8.44E−05 mSv/MBq; EDE Cont. (Pancreas): 8.14E−04 mSv/MBq and 1.32E−03 mSv/MBq and 9.27E−04 mSv/MBq and 1.01E−03 mSv/MBq; Photon dose (Pancreas): 4.90E−03 mSv/MBq and 5.90E−03 mSv/MBq and 4.18E−03 mSv/MBq and 5.04E−03 mSv/MBq; Total dose (Pancreas): 1.69E−02 mSv/MBq and 2.21E−02 mSv/MBq and 1.54E−02 mSv/MBq
